Measurements reported in paper PMC10820816, “Drug Synergism of Anticancer Action in Combination with Favipiravir and Paclitaxel on Neuroblastoma Cells” (Medicina, 2023).
Converted amounts (≈) assume the structure as drawn.

How the values were obtained:
[1] = system: HDFa healthy cell cultures; assay: Hoechst 33258 fluorescent staining and nuclear abnormality analysis; format: cell-based, human; design: MN (micronuclei) / Ntc (notched nuclei): unit not given here; conditions: for Abnormality Numbers/1000 Cells / L (lobed nuclei) / MN (micronuclei) / Ntc (notched nuclei): 24 h; for nuclear anomaly change compared to negative control: Hoechst 33258 staining
Procedure: (§1) The human dermal fibroblast cell (HDFa, ATCC® PCS-201-012™) culture was grown in the DMEM medium supplemented with 1% penicillin/streptomycin, 10% FBS and 5% CO2 at a 37 °C temperature until the cultures reached 80% confluency. The human neuroblastoma cell (SH-SY5Y, ATCC® CRL-2266™) line was cultured in DMEM/F12 culture media containing 1% penicillin/streptomycin and 10% fetal bovine serum at 37 °C and 5% CO2. Neuroblastoma cell cultures were incubated to grow up to 80% cell density.
The Hoechst 33258 nuclear staining method was used to monitor abnormalities in the nuclear structures of a healthy HDFa cell culture. Tested drugs were applied to the HDFa cell cultures at various concentrations, and the cell cultures were incubated at 37 °C for 24 h. Then, HDFa cells were fixed by using 4% paraformaldehyde at 4 °C for 30 min. After the incubation period, the cell cultures were washed with PBS two times. A total of 1 µM Hoechst 33258 fluorescent dye was added to the samples and incubated at room temperature for 5 min. Nuclear morphologies were monitored and photographed under a fluorescent microscope (Leica® DM IL LED, Wetzlar, Germany).

CYP2C8 = system: CYP2C8; design: method as in PMID 34339547; conditions: cited from earlier work
[2] = system: SHSY-5Y neuroblastoma cells; assay: Flow cytometry analysis (FITC Annexin V / PI); format: cell-based, human; conditions: FPV alone 39.06, 19.53, 9.76 µg/mL
Procedure: as §1
(§2) Flow cytometry analysis was performed by using the FITC Annexin V/Dead Cell Apoptosis Kit with FITC Annexin V and PI according to the producer’s recommendations. Further, 5 × 10^4 cells were collected by trypsinization and centrifugation. The cells were resuspended in 500 μL of 1× binding buffer and 5 μL of propidium iodide, and the Annexin V-FITC (50 μg/mL) dyes were added to the cultures and incubated in the dark for 5 min. Finally, the cultures were analyzed via the use of flow cytometry (The CyFlow® Cube 6, Norderstedt, Germany).

[3] = MTT cell viability assay on SH-SY5Y neuroblastoma cells; format: cell-based, human; conditions: human, SH-SY5Y neuroblastoma cells, SHSY-5Y, PTX 10 µg/mL alone
Procedure: as §1
(§3) Cell viability analyses were performed on HDFa and SH-SY5Y by using the 3-(4,5-dimethylthiazol-2-yl)-2,5-diphenyltetrazolium bromide (MTT) technique. Briefly, the compounds were applied to cell cultures at defined concentration intervals (1.65 µg/mL to 100 µg/mL) for 24 h. At the end of the incubation period, 10 µL of the MTT solution ([…]) was added to each culture well, and the samples were incubated at 37 °C for 3 h. Then, the culture mediums were discarded, and 100 µL of DMSO was added to the samples to dissolve formazan crystal to obtain a purple/blue color. A microplate reader was used to measure the color intensities at a 570 nm wavelength.

[4] = system: SHSY-5Y neuroblastoma cells; assay: as above; format: cell-based, human; conditions: 24 h, p < 0.05
Procedure: as §1, §3

[5] = system: human fibroblast (HDFa) cells; assay: MTT cell viability assay on human fibroblast (HDFa) cells; format: cell-based; conditions: 24 h, p < 0.05
Procedure: as §1, §3

[6] = Flow cytometry analysis (FITC Annexin V / PI); format: cell-based, human; conditions: human, SH-SY5Y neuroblastoma cells, SHSY-5Y, PTX 10 µg/mL
Procedure: as §1, §2

NC(=O)c1nc(F)c[nH]c1=O [FPV, Favipiravir]
Abnormality Numbers/1000 Cells ([1]; FPV 9.7 µg/mL): 0.020 ± 0.008 a | L (lobed nuclei) ([1]; FPV 9.7 µg/mL): 7 | MN (micronuclei) ([1]; FPV 9.7 µg/mL): 8 | Ntc (notched nuclei) ([1]; FPV 9.7 µg/mL): 5 | Abnormality Numbers/1000 Cells ([1]; FPV 19.5 µg/mL): 0.019 ± 0.016 a | L (lobed nuclei) ([1]; FPV 19.5 µg/mL): 6 | MN (micronuclei) ([1]; FPV 19.5 µg/mL): 6 | Ntc (notched nuclei) ([1]; FPV 19.5 µg/mL): 7 | Abnormality Numbers/1000 Cells ([1]; FPV 39 µg/mL): 0.019 ± 0.007 a | L (lobed nuclei) ([1]; FPV 39 µg/mL): 7 | MN (micronuclei) ([1]; FPV 39 µg/mL): 7 | Ntc (notched nuclei) ([1]; FPV 39 µg/mL): 5 | nuclear anomaly change compared to negative control [1]: no significant numerical anomaly change | IC50, concentration-dependent inhibitory effect on CYP2C8 (CYP2C8): 74.9 µg/mL (≈ 477 µM) | change in cell viability [2]: did not cause a significant change in cell viability

CC(=O)O[C@H]1C(=O)[C@@]2(C)[C@H]([C@H](OC(=O)c3ccccc3)[C@]3(O)C[C@H](OC(=O)[C@H](O)[C@@H](NC(=O)c4ccccc4)c4ccccc4)C(C)=C1C3(C)C)[C@]1(OC(C)=O)CO[C@@H]1C[C@@H]2O [PTX, Paclitaxel]
nuclear anomaly change compared to negative control [1]: no significant numerical anomaly change | Abnormality Numbers/1000 Cells ([1]; PTX 10 µg/mL): 0.019 ± 0.013 a | L (lobed nuclei) ([1]; PTX 10 µg/mL): 5 | MN (micronuclei) ([1]; PTX 10 µg/mL): 8 | Ntc (notched nuclei) ([1]; PTX 10 µg/mL): 6 | viability at 24 h, 10 µg/mL [3]: 37% | concentrations causing a significant decrease in cell viability (cytotoxic effect) [4]: ≥ 312.5 ng/mL | concentrations causing a significant cytotoxic / viability-reducing effect [5]: 10000 ng/mL | viability at 10 µg/mL [6]: ~37%
